Source: patent publication US6346402B1, “(S)-α-phenethylamine: pyruvate transaminase” (Kaneka Corporation, priority 1998, dated 2002)
Entries after “also recorded” stand apart in the source; their conditions may differ.

Tests used:
[1] = test system: (S)-α-phenethylamine:pyruvate transaminase; test: Substrate specificity for amino group receptors (acetophenone quantified by HPLC); format: biochemical, Pseudomonas sp. KNK425
Protocol: The mixture was reacted at 30° C. for 1 hour. The resulting reaction mixture was analyzed by high-performance liquid chromatography, to quantify acetophenone.
(§1) The assay conditions by high-performance liquid chromatography are as follows.

[2] = test system: (S)-α-phenethylamine:pyruvate transaminase; test: Substrate specificity for amino group donors (dabsylated alanine quantified by HPLC); format: biochemical, Pseudomonas sp. KNK425; settings: for Relative Activity (%): substance as amino group donor, 22.5 mM, 22.5 mM pyruvic acid, pH 7.0, 30° C., 1 hour, (S)-phenethylamine = 100, Table 2
Protocol: The mixture was reacted at 30° C. for 1 hour, and thereafter immersed in boiling water for 5 minutes, to stop the reaction. The reaction mixture obtained after termination of reaction was diluted five times with 0.2M sodium carbonate buffer, and 0.2 mL of a 10 mM acetone solution of dabsyl chloride was added to 0.1 mL portion of the resulting dilution. The reaction mixture was reacted at 70° C. for 15 minutes, and after cooling, 0.1 mL of 1 N HCl was added. This reaction mixture was analyzed by high-performance liquid chromatography to quantify dabsylated alanine.
as §1
The results thereof, expressed in terms of the relative activity where an activity when using (S)-phenethylamine as an amino group donor is 100, are shown in Table 2.

[3] = test system: (S)-α-phenethylamine:pyruvate transaminase; test: as above; format: biochemical, Pseudomonas sp. KNK425; settings: substance as amino group donor; for Relative Activity (%): Table 1; for Relative Activity (%) of (S)-α-Phenethylamine:Pyruvate Transaminase [Present Invention]: Table 4
[4] = test system: 4-aminobutyrate:2-ketoglutarate transaminase; settings: substance as amino group donor; amino group receptor 2-ketoglutaric acid; Table 4; cited from earlier work
[5] = test system: ω-amino acid:pyruvate transaminase; settings: substance as amino group donor; amino group receptor pyruvic acid; Table 4; cited from earlier work
[6] = ketone compound as amino group receptor, donor (S)-α-phenethylamine, same manner as Example 5, Table 5
[7] = amino group receptor pyruvic acid
[8] = substance as amino group receptor, 22.5 mM, donor 22.5 mM (S)-α-phenethylamine, pH 7.0, 30° C., 1 hour, pyruvic acid = 100, Table 3
[9] = compound as amino group receptor, donor (S)-α-phenethylamine, same manner as Example 5, Table 6
[10] = amino group receptor 2-ketoglutaric acid

CC(=O)c1ccccc1O [2′-Hydroxyacetophenone]
Relative Activity (%) [1, 6]: 24%

CC(=O)c1nccs1 [2-Acetylthiazole]
Relative Activity (%) [1, 6]: 4%

NC1CCCCC1 [Cyclohexylamine]
Relative Activity (%) [2]: 1%

NCCCCC(N)C(=O)O (racemic) [DL-Lysine]
Activity of the enzyme to the substance as amino group donor (in words) [2]: not exhibiting activity; also recorded: does not act | Relative Activity (%) [3, 7]: 0%

Cl.N [Ammonium Chloride]
Activity of the enzyme to the substance as amino group donor (in words) [2]: does not also act | Relative Activity (%) [3, 7]: 0%

CC(N)c1cccc(O)c1 (stereo not drawn) [3′-Hydroxy-α-phenethylamine]
Relative Activity (%) [2]: 52%

C[C@H](N)c1ccccc1 [(S)-α-Phenethylamine]
Activity of the enzyme to the substance as amino group donor (in words) [2]: especially high activity; also recorded: specifically high activity; also recorded: exhibiting activity; also recorded: exhibits high activity | Relative Activity (%) [2]: 100% | Relative Activity (%) [3, 7]: 100% | Relative Activity (%) of (S)-α-Phenethylamine:Pyruvate Transaminase [Present Invention] [3, 7]: 100%

NCCCc1ccccc1 [3-Phenylpropylamine]
Relative Activity (%) [2]: 1%

CC(=O)c1cnccn1 [Acetylpyrazine]
Relative Activity (%) [1, 6]: 100%

CCC(=O)C(=O)O [2-Ketobutyric acid]
Relative Activity (%) [1, 8]: 5.8%

O=CCc1ccccc1 [Phenylacetaldehyde]
Relative Activity (%) [1, 9]: 37%

CC(=O)c1ccccn1 [2-Acetylpyridine]
Relative Activity (%) [1, 6]: 42%

C[C@@H](N)c1ccccc1 [(R)-α-Phenethylamine]
Relative Activity (%) [2]: 3%

CCC(C)N (stereo not shown) [2-Butylamine]
Relative Activity (%) [2]: 1%

NCCC(=O)O [β-Alanine]
Activity of the enzyme to the substance as amino group donor (in words) [2]: does not act; also recorded: not exhibiting activity | Relative Activity (%) of (S)-α-Phenethylamine:Pyruvate Transaminase [Present Invention] [3, 10]: 0% | Relative Activity (%) of (S)-α-Phenethylamine:Pyruvate Transaminase [Present Invention] [3, 7]: 0% | Relative Activity (%) of 4-Aminobutyrate:2-ketoglutarate Transaminase [Derived from Pseudomonas F-126] [4]: 0% | Relative Activity (%) of ω-Amino acid:Pyruvate Transaminase [Derived from Pseudomonas F-126] [5]: 100%

CC(C)N [Isopropylamine]
Relative Activity (%) [2]: 0%

CC(=O)C(=O)O [Pyruvic acid]
Activity of the enzyme to the substance as amino group receptor (in words) [1]: high activity; also recorded: exhibiting activity; also recorded: exhibits activity | Relative Activity (%) [1, 9]: 100% | Relative Activity (%) [1, 8]: 100%

NC(CCC(=O)O)C(=O)O (racemic) [DL-Glutamic Acid]
Activity of the enzyme to the substance as amino group donor (in words) [2]: does not act | Relative Activity (%) [3, 7]: 0%

CCC(=O)Cc1ccccc1 [1-Phenyl-2-butanone]
Relative Activity (%) [1, 6]: 5%

N[C@@H](CC(=O)O)C(=O)O [L-Aspartic Acid]
Activity of the enzyme to the substance as amino group donor (in words) [2]: does not act | Relative Activity (%) [3, 7]: 0%

CCCCCN [Amylamine]
Relative Activity (%) [2]: 5%

CC(=O)c1cccc(O)c1 [3′-Hydroxyacetophenone]
Relative Activity (%) [1, 6]: 6%

NCCS(=O)(=O)O [Taurine]
Activity of the enzyme to the substance as amino group donor (in words) [2]: does not act; also recorded: not exhibiting activity | Relative Activity (%) of (S)-α-Phenethylamine:Pyruvate Transaminase [Present Invention] [3, 7]: 0% | Relative Activity (%) of ω-Amino acid:Pyruvate Transaminase [Derived from Pseudomonas F-126] [5]: 132%

COc1ccc(CC(C)N)cc1OC (stereo not shown) [1-(3,4-Dimethoxyphenyl)-2-aminopropane]
Relative Activity (%) [2]: 18%

NCCCC(=O)O [4-Aminobutyric acid]
Activity of the enzyme to the substance as amino group donor (in words) [2]: does not act | Relative Activity (%) of (S)-α-Phenethylamine:Pyruvate Transaminase [Present Invention] [3, 10]: 0% | Relative Activity (%) of 4-Aminobutyrate:2-ketoglutarate Transaminase [Derived from Pseudomonas F-126] [4]: 100%

CCCC(=O)C(=O)O [2-Keto-valeric acid]
Relative Activity (%) [1, 8]: 1.5%

CC(=O)COc1ccccc1 [Phenoxy-2-propanone]
Relative Activity (%) [1, 9]: 46%

CC(=O)c1cccnc1 [3-Acetylpyridine]
Relative Activity (%) [1, 6]: 14%

O=C(O)CCC(=O)C(=O)O [2-Ketoglutaric acid]
Activity of the enzyme to the substance as amino group receptor (in words) [1]: did not exhibit an activity; also recorded: does not act | Relative Activity (%) [1, 8]: 0%

CCCN [n-Propylamine]
Relative Activity (%) [2]: 0%

NCCc1ccccc1 [β-Phenethylamine]
Relative Activity (%) [2]: 23%

NCC(=O)O [Glycine]
Activity of the enzyme to the substance as amino group donor (in words) [2]: does not act | Relative Activity (%) [3, 7]: 0%

CC(N)CCc1ccccc1 (stereo not shown) [1-Phenyl-3-aminobutane]
Relative Activity (%) [2]: 80%

O=CCCc1ccccc1 [3-Phenylpropionaldehyde]
Relative Activity (%) [1, 9]: 16%

CC(=O)CCc1ccccc1 [Benzyl acetone]
Relative Activity (%) [1, 6]: 70%

CC(=O)Cc1cccc(C(F)(F)F)c1 [3′-Trifluoromethylphenyl acetone]
Relative Activity (%) [1, 6]: 60%

CCCCCCC(C)N (stereo not shown) [2-Octylamine]
Relative Activity (%) [2]: 46%

COc1ccc(CC(C)=O)cc1OC [3′,4′-Dimethoxyphenyl acetone]
Relative Activity (%) [1, 6]: 38%

CC(=O)CC(=O)c1ccccc1 [Benzoyl acetone]
Relative Activity (%) [1, 6]: 12%

CC(=O)c1ccco1 [2-Acetylfuran]
Relative Activity (%) [1, 6]: 3%

COc1cccc(C(C)=O)c1 [3′-Methoxyacetophenone]
Relative Activity (%) [1, 6]: 4%

CC(=O)c1ccc(Cl)cc1 [4′-Chloroacetophenone]
Relative Activity (%) [1, 6]: 22%

COc1ccc(CC(C)=O)cc1 [4′-Methoxyphenyl acetone]
Relative Activity (%) [1, 6]: 12%

CCCC(C)N (stereo not shown) [2-Pentylamine]
Relative Activity (%) [2]: 4%

NCCCCN [Putrescine]
Activity of the enzyme to the substance as amino group donor (in words) [2]: does not act; also recorded: not exhibiting activity | Relative Activity (%) of (S)-α-Phenethylamine:Pyruvate Transaminase [Present Invention] [3, 10]: 0% | Relative Activity (%) of (S)-α-Phenethylamine:Pyruvate Transaminase [Present Invention] [3, 7]: 0% | Relative Activity (%) of 4-Aminobutyrate:2-ketoglutarate Transaminase [Derived from Pseudomonas F-126] [4]: 8% | Relative Activity (%) of ω-Amino acid:Pyruvate Transaminase [Derived from Pseudomonas F-126] [5]: 18%

CCCCN [n-Butylamine]
Relative Activity (%) [2]: 2%

COc1ccc(CCC(C)=O)cc1 [4-(4′-Methoxyphenyl)-2-butanone]
Relative Activity (%) [1, 6]: 35%

NCc1ccccc1 [Benzylamine]
Relative Activity (%) [2]: 13%

CCCCCC(C)N (stereo not shown) [2-Heptylamine]
Relative Activity (%) [2]: 28%

CC(=O)c1ccncc1 [4-Acetylpyridine]
Relative Activity (%) [1, 6]: 8%

O=CC(=O)O [Glyoxylic acid]
Activity of the enzyme to the substance as amino group receptor (in words) [1]: high activity; also recorded: exhibiting activity; also recorded: exhibits activity | Relative Activity (%) [1, 8]: 100%

COCC(C)=O [Methoxypropanone]
Relative Activity (%) [1, 9]: 5%
